Reference: patent publication US20070275953A1 (priority 2003, published 2007)
pEC50: −log10 of the molar value. Where two headings read alike, the source gives them in different places.

What was measured:
[1] = test system: HIV-1 with WT (wild type) RT in PBMC; test: Anti-HIV assay on PBMC, WT RT (p24); type: cell-based
Method: Wurzburg Jurkat T cells (subclone JR) were transfected with 10 μg of the circularly permuted infectious molecular clone HIVNL4-3 (Adachi et al., 1986. J. Virol, 59 (2), p 284-291). Two days later, co-cultivation with SupT1 cells (a human T-cell lymphoma cell line) was initiated to facilitate rapid production of progeny virions. Production of virus was measured by using the Innotest HIV Antigen mAb p24 kit (Innogenetics). At the peak of production cultures were harvested and filtered. The virus stocks were stored at −80° C. until used.
Anti-HIV activity of the compounds was tested on Peripheral Blood Mononuclear Cells (PBMCs). These cells were separated from the blood of healthy donor using established procedures. PBMCs were cultured in RPMI medium supplemented with 10% fetal bovine serum (FBS), 1% Penicillin/Streptomycin and 20 U/ml of Interleukin-2.
PBMCs isolated from the blood of healthy donor contain CD4^+ T-lymphocytes which are one of the main targets of HIV in infected individuals.
Briefly, in the anti-HIV assay PBMCs, activated with phytohemagglutinin, were infected with HIV-1. 100 μl of infected PBMCs were seeded in 96-well plate at a concentration of 1 10^5 cells/ml, and 100 μl of the different drugs dilutions were added to the cells. After 4 days of incubation at 37° C., 5% CO2, cells cultures supernatants were collected. The amount of the viral capsid protein p24 in the supernatants was measured using the Innotest HIV Antigen mAb P24 kit (Innogenetics).

[2] = test system: P4 cells; test: Cytotoxicity (CC50), MTT assay on P4 cells; type: cell-based; conditions: 3 days
Method: (§1) For the antiviral and the cytotoxicity assays, the drugs were diluted in complete DMEM medium. In these experiments, drugs were diluted in triplicate wells in a 96-well plate in six, 5 fold serial dilutions.
(§2) The 50% cytotoxic concentration (CCso) was determined using a protocol adapted from Pauwels et al. (1988. J. Virol. Methods 20(4):309-21). Briefly, flat bottom 96-well plates were filled with 50 μl of complete medium containing 5.10^3 P4 cells. 2 hours later 50 μl of drug solution were added to the cells. Drugs (dissolved in DMEM, see above) were diluted in six, 5-fold serial dilutions from stock solutions in triplicate wells of a 96-well plate. Cells and compounds were incubated at 37° C. in growth medium for 3 days. Cell viability was determined by MTT assays using the Roche Cell Proliferation KIT. The absorbance (λ=570 nm) was measured on a Benchmark™ Microplate Reader (Biorad) and compared with 12 cell control replicates (no drug added). Each assay was performed at least three times for a total of at least nine replicate wells. This method detects both cytostatic and cytolytic effects of drugs.

[3] = Cytotoxicity (CC50), MTT assay on P4 cells; type: cell-based; conditions: human
Method: as §1, §2

[4] = test system: HIV-1 mutant Asn103/Ile108RT in TZM-bl cells; test: Anti-HIV assay on TZM-bl cells, Asn103/Ile108RT double mutant; type: cell-based; conditions: read-out: EC50 Asn103/Ile108RT TZM-bl
Description: (§3) In order to introduce mutation(s) at the level of the pol gene coding for the RT in the pNL4-3 plasmid containing the complete viral genome (Adachi et al., 1986. J. Virol., Vol. 59 p 284-291) we used the “Quick change mutagenesis kit” (Stratagene). The following mutations were separately introduced in pNL4-3: L100I, K103N, V108I, Y181C, Y188C, and the double mutations K103N/V108I. These mutations were chosen because of the resistance that they confer to existing NNRTI. The production procedure of the mutant viral stocks is identical to the one described above.
(§4) Anti-HIV activity and cytotoxicity of the compounds were tested on the TZM-b1 cell line. The TZM-b1 cell line (Wei et al. 2002. Antimicrob. Agents Chemother. Vol. 46, p 1896-1905) was received from the NIH AIDS Research and Reference Reagent Program. These cells were cultured in complete DMEM medium supplemented with 10% fetal bovine serum (FBS), and 1% Penicillin/Streptomycin. Exponentially growing cells were trypsinized, centrifuged and split twice weekly at 5 10^4 cells/ml.
(§5) The anti-HIV assay with TZM-b1 cells is essentially the same as described above with P4 cells. The main difference between the two cell lines is that the TZM-b1 cells express at their surface both the CD4 and CCR5 proteins, acting as receptor and co-receptor for HIV entry, respectively (Wei et al. 2002. Antimicrob. Agents Chemother. Vol. 46, p 1896-1905). This feature makes the cells very sensitive to infection by the virus. The TMZ-b1 cells were infected with equal amount of cell-free virus, corresponding to 10 ng of HIV p24 antigen. This amount is ten times lower than the amount used to infect the P4 cells.

[5] = test system: HIV-1 mutant Cys188RT in TZM-bl cells; test: Anti-HIV assay on TZM-bl cells, Cys188RT mutant; type: cell-based; conditions: read-out: EC50 Cys188RT TZM-bl
Description: as §3, §4, §5

[6] = test system: HIV-1 with WT (wild type) RT in P4 cells; conditions: published values; read-out: Nevirapine activity, published values; cited from earlier work
[7] = Human immunodeficiency virus 1, TZM-bl
[8] = TZM-bl, double mutant Asn103/Ile108RT

Compound	pEC50 [1]	CC50 [2]	CC50 at 3 days [3]	pEC50 [5, 7]	also measured
CCOC(=O)c1c(OC2CC(C)CC(C)C2)c(CC)c(C)[nH]c1=O (single isomer, unassigned) [Z37inv]	7.27	64000 nM	–	–	–
O=C1Nc2ccc(Cl)cc2[C@@](C#CC2CC2)(C(F)(F)F)O1 [Efavirenz, reference compound]	–	–	40000 nM	> 9.00	pEC50 [4, 7]: 6.82
Cc1ccnc2c1NC(=O)c1cccnc1N2C1CC1 [Nevirapine, reference compound]	–	–	> 100000 nM	5.57	pEC50 ([1]; Human immunodeficiency virus 1): 7.52; pEC50 [6]: 7.00 to 8.00
CCc1c(C)[nH]c(=O)c(CO)c1OC1CC(C)CC(C)C1 (centres unmarked) [Z45inv]	7.74	76000 nM	–	–	–
CCc1c(C)[nH]c(=O)c([N+](=O)[O-])c1OC1CC(C)CC(C)C1 (centres unmarked) [Z91inv, 3-nitro-5-ethyl-6-methyl-4-[(3,5-dimethylcyclohexyl)oxy]pyridine-2(1H)-one]	–	–	37200 nM	–	pEC50 ([1]; Human immunodeficiency virus 1): > 9.00; melting point: 206 to 207 °C
CCc1c(C)[nH]c(=O)c(CSC(C)=O)c1OC1CC(C)CC(C)C1 (centres unmarked) [Z114]	> 9.00	8000 nM	–	–	pEC50 ([5]; TZM-bl, mutant Cys188RT): 9.00
CCc1c(C)[nH]c(=O)c(N(C)C)c1OC1CC(C)CC(C)C1 (centres unmarked) [Z150, 3-(dimethylamino)-5-ethyl-6-methyl-4-[(3,5-dimethylcyclohexyl)oxy]pyridine-2(1H)-one]	–	–	66000 nM	> 9.00	melting point: 129 to 130 °C; pEC50 [4, 7]: 6.80
CCc1c(C)[nH]c(=O)c(CN=[N+]=[N-])c1OC1CC(C)CC(C)C1 (centres unmarked) [Z153]	–	54000 nM	–	–	pEC50 [4, 8]: 6.44; pEC50 ([5]; TZM-bl, mutant Cys188RT): > 9.00
CCc1c(C)[nH]c(=O)c(C)c1OC1CC(C)CC(C)C1 (centres unmarked) [Z154]	–	80000 nM	–	–	pEC50 [4, 8]: 6.64
